Measurements reported in patent US20110039721A1, “METHOD FOR PREDICTION ABOUT CARCINOGENICITY OF SUBSTANCE IN RODENT” (Chemicals Evaluation and Research Institute, priority 2007, published 2011).
Structures can show the parent of a compound that is named as a salt.

Assays:
liver = conditions: in vivo; cited from earlier work
rodent = conditions: in vivo; cited from earlier work
[1] = system: mRNA expressed from the genes (A) to (D) in rat liver; test: Behavior of genes (mRNA expression level, oligo-DNA microarray) in rat liver after 28-day oral administration; format: in vivo
Procedure, shortened: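 Liver mRNA levels were compared with matched vehicle groups, with a shift of at least 1.5-fold up or down deemed significant unless its direction disagreed with other carcinogens. Test substances were dosed orally by gavage daily for 28 days to 5-week-old male F344 rats, four per group.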

[2] = (C), Unigene Rn.120914, defined direction +, rat liver, oral once daily 28 days

Compound: CN(C)CCN(Cc1cccs1)c1ccccn1 [TS053, Methapyrilene HCl]
- Liver carcinogenicity (liver): Cr+
- Carcinogenicity (rodent): C+

Compound: CC(N)=O [TS067, Acetamide]
- Carcinogenicity (rodent): C+
- Behavior of gene caused by administration of chemical substance, Gene No. 4846 ([1]; (A), Unigene Rn.144554, defined direction +, rat liver, oral once daily 28 days): +
- Behavior of gene caused by administration of chemical substance, Gene No. 4218 ([1]; (A), Unigene Rn.167075, defined direction +, rat liver, oral once daily 28 days, significant = 1.5 times or more or 1/1.5 or less of control): −
- Behavior of gene caused by administration of chemical substance, Gene No. 2026 ([1]; (A), Unigene Rn.167075, defined direction −, rat liver, oral once daily 28 days): +
- Behavior of gene caused by administration of chemical substance, Gene No. 6182 ([1]; (A), Unigene Rn.5834, defined direction +, rat liver, oral once daily 28 days): −
- Behavior of gene caused by administration of chemical substance, Gene No. 5600 ([1]; (A), Unigene Rn.9836, defined direction +, rat liver, oral once daily 28 days): −
- Behavior of gene caused by administration of chemical substance, Gene No. 1494 ([1]; (B), Unigene Rn.1430, defined direction −, rat liver, oral once daily 28 days): −
- Behavior of gene caused by administration of chemical substance, Gene No. 2045 ([1]; (B), Unigene Rn.19329, defined direction +, rat liver, oral once daily 28 days): −
- Behavior of gene caused by administration of chemical substance, Gene No. 2203 ([1]; (B), Unigene Rn.21240, defined direction +, rat liver, oral once daily 28 days): −
- Behavior of gene caused by administration of chemical substance, Gene No. 533 ([1]; (C), Unigene Rn.106184, defined direction +, rat liver, oral once daily 28 days): +
- Behavior of gene caused by administration of chemical substance, Gene No. 725 ([1]; (C), Unigene Rn.108075, defined direction −, rat liver, oral once daily 28 days): −
- Behavior of gene caused by administration of chemical substance, Gene No. 1163 ([1]; (C), Unigene Rn.11766, defined direction +, rat liver, oral once daily 28 days): −
- Behavior of gene caused by administration of chemical substance, Gene No. 4973 ([1]; (C), Unigene Rn.118529, defined direction −, rat liver, oral once daily 28 days): −
- Behavior of gene caused by administration of chemical substance, Gene No. 4095 ([1]; (C), Unigene Rn.119024, defined direction −, rat liver, oral once daily 28 days): −
- Behavior of gene caused by administration of chemical substance, Gene No. 1334 [1, 2]: −
- Behavior of gene caused by administration of chemical substance, Gene No. 6620 [1, 2]: −
- Behavior of gene caused by administration of chemical substance, Gene No. 6303 ([1]; (C), Unigene Rn.123063, defined direction −, rat liver, oral once daily 28 days): +
- Behavior of gene caused by administration of chemical substance, Gene No. 5878 ([1]; (C), Unigene Rn.143213, defined direction −, rat liver, oral once daily 28 days): −
- Behavior of gene caused by administration of chemical substance, Gene No. 1131 ([1]; (C), Unigene Rn.144946, defined direction −, rat liver, oral once daily 28 days): −
- Behavior of gene caused by administration of chemical substance, Gene No. 1562 ([1]; (C), Unigene Rn.14744, defined direction −, rat liver, oral once daily 28 days): −
- Behavior of gene caused by administration of chemical substance, Gene No. 1741 ([1]; (C), Unigene Rn.1647, defined direction −, rat liver, oral once daily 28 days): −
- Behavior of gene caused by administration of chemical substance, Gene No. 893 ([1]; (C), Unigene Rn.164817, defined direction +, rat liver, oral once daily 28 days): −
- Behavior of gene caused by administration of chemical substance, Gene No. 6026 ([1]; (C), Unigene Rn.167685, defined direction −, rat liver, oral once daily 28 days): −
- Behavior of gene caused by administration of chemical substance, Gene No. 154 ([1]; (C), Unigene Rn.185941, defined direction −, rat liver, oral once daily 28 days): +
- Behavior of gene caused by administration of chemical substance, Gene No. 1993 ([1]; (C), Unigene Rn.18728, defined direction −, rat liver, oral once daily 28 days): −
- Behavior of gene caused by administration of chemical substance, Gene No. 813 ([1]; (C), Unigene Rn.201760, defined direction +, rat liver, oral once daily 28 days): −
- Behavior of gene caused by administration of chemical substance, Gene No. 2494 ([1]; (C), Unigene Rn.23969, defined direction +, rat liver, oral once daily 28 days): −
- Behavior of gene caused by administration of chemical substance, Gene No. 2546 ([1]; (C), Unigene Rn.24561, defined direction −, rat liver, oral once daily 28 days): −
- Behavior of gene caused by administration of chemical substance, Gene No. 3776 ([1]; (C), Unigene Rn.43232, defined direction −, rat liver, oral once daily 28 days): −
- Behavior of gene caused by administration of chemical substance, Gene No. 3929 ([1]; (C), Unigene Rn.4620, defined direction +, rat liver, oral once daily 28 days): −
- Behavior of gene caused by administration of chemical substance, Gene No. 1119 ([1]; (C), Unigene Rn.9757, defined direction +, rat liver, oral once daily 28 days): −
- Behavior of gene caused by administration of chemical substance, Gene No. 6742 ([1]; (C), Unigene Rn.9779, defined direction +, rat liver, oral once daily 28 days): −
- Behavior of gene caused by administration of chemical substance, Gene No. 5634 ([1]; (C), Unigene Rn.9862, defined direction −, rat liver, oral once daily 28 days): −
- Behavior of gene caused by administration of chemical substance, Gene No. 5726 ([1]; (D), Unigene Rn.9939, defined direction −, rat liver, oral once daily 28 days): −

Compound: Cc1ccccc1[N+](=O)[O-] [TS087, o-Nitrotoluene]
- Carcinogenicity (rodent): C+
- Behavior of gene caused by administration of chemical substance ([1]; Gene No. 154, Rn.185941, group (C)): −
- Behavior of gene caused by administration of chemical substance ([1]; Gene No. 533, Rn.106184, group (C)): +
- Behavior of gene caused by administration of chemical substance ([1]; Gene No. 725, Rn.108075, group (C)): +
- Behavior of gene caused by administration of chemical substance ([1]; Gene No. 813, Rn.201760, group (C)): −
- Behavior of gene caused by administration of chemical substance ([1]; Gene No. 893, Rn.164817, group (C)): −
- Behavior of gene caused by administration of chemical substance ([1]; Gene No. 1119, Rn.9757, group (C)): −
- Behavior of gene caused by administration of chemical substance ([1]; Gene No. 1131, Rn.144946, group (C)): −
- Behavior of gene caused by administration of chemical substance ([1]; Gene No. 1163, Rn.11766, group (C)): −
- Behavior of gene caused by administration of chemical substance ([1]; Gene No. 1334, Rn.120914, group (C)): −
- Behavior of gene caused by administration of chemical substance ([1]; Gene No. 1494, Rn.1430, group (B)): +
- Behavior of gene caused by administration of chemical substance ([1]; Gene No. 1562, Rn.14744, group (C)): −
- Behavior of gene caused by administration of chemical substance ([1]; Gene No. 1741, Rn.1647, group (C)): −
- Behavior of gene caused by administration of chemical substance ([1]; Gene No. 1993, Rn.18728, group (C)): −
- Behavior of gene caused by administration of chemical substance ([1]; Gene No. 2026, Rn.167075, group (A)): +
- Behavior of gene caused by administration of chemical substance ([1]; Gene No. 2045, Rn.19329, group (B)): −
- Behavior of gene caused by administration of chemical substance ([1]; Gene No. 2203, Rn.21240, group (B)): −
- Behavior of gene caused by administration of chemical substance ([1]; Gene No. 2494, Rn.23969, group (C)): −
- Behavior of gene caused by administration of chemical substance ([1]; Gene No. 2546, Rn.24561, group (C)): −
- Behavior of gene caused by administration of chemical substance ([1]; Gene No. 3776, Rn.43232, group (C)): −
- Behavior of gene caused by administration of chemical substance ([1]; Gene No. 3929, Rn.4620, group (C)): −
- Behavior of gene caused by administration of chemical substance ([1]; Gene No. 4095, Rn.119024, group (C)): −
- Behavior of gene caused by administration of chemical substance ([1]; Gene No. 4218, Rn.167075, group (A)): +
- Behavior of gene caused by administration of chemical substance ([1]; Gene No. 4846, Rn.144554, group (A)): +
- Behavior of gene caused by administration of chemical substance ([1]; Gene No. 4973, Rn.118529, group (C)): +
- Behavior of gene caused by administration of chemical substance ([1]; Gene No. 5600, Rn.9836, group (A)): +
- Behavior of gene caused by administration of chemical substance ([1]; Gene No. 5634, Rn.9862, group (C)): −
- Behavior of gene caused by administration of chemical substance ([1]; Gene No. 5726, Rn.9939, group (D)): −
- Behavior of gene caused by administration of chemical substance ([1]; Gene No. 5878, Rn.143213, group (C)): −
- Behavior of gene caused by administration of chemical substance ([1]; Gene No. 6026, Rn.167685, group (C)): −
- Behavior of gene caused by administration of chemical substance ([1]; Gene No. 6182, Rn.5834, group (A)): +
- Behavior of gene caused by administration of chemical substance ([1]; Gene No. 6303, Rn.123063, group (C)): +
- Behavior of gene caused by administration of chemical substance ([1]; Gene No. 6620, Rn.120914, group (C)): −
- Behavior of gene caused by administration of chemical substance ([1]; Gene No. 6742, Rn.9779, group (C)): −
